The results in this text go back to paper PMC8071972, “Urinary L-erythro-β-hydroxyasparagine—a novel serine racemase inhibitor and substrate of the Zn^2+-dependent D-serine dehydratase” (Bioscience Reports, 2021).

What all share (assay type): biochemical
For assay [1], the target named is T1, serine racemase (mouse SR) (Mus musculus, UniProt Q9QZX7).
T1 construct: gene Srr; N-terminal His-tag, recombinant from E. coli
T1 sequence (Q9QZX7 1-339): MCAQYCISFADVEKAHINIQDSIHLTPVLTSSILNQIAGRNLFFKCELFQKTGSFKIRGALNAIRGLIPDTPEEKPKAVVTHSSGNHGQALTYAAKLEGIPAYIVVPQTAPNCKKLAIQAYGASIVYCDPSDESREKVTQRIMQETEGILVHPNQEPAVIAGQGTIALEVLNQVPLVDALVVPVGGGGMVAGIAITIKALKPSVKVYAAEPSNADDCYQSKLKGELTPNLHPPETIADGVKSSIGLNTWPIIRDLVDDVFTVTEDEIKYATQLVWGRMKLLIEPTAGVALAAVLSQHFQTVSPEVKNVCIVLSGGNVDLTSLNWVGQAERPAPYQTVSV
Nature of the assay: enzymatic resolution of racemic β-EHAsp by recombinant enzyme.

The target in assay [2] is T2, D-serine dehydratase (Dsd1p) (Saccharomyces cerevisiae, UniProt P53095).
T2 construct: gene DSD1; N-terminal His-tagged protein
T2 sequence (P53095 1-428): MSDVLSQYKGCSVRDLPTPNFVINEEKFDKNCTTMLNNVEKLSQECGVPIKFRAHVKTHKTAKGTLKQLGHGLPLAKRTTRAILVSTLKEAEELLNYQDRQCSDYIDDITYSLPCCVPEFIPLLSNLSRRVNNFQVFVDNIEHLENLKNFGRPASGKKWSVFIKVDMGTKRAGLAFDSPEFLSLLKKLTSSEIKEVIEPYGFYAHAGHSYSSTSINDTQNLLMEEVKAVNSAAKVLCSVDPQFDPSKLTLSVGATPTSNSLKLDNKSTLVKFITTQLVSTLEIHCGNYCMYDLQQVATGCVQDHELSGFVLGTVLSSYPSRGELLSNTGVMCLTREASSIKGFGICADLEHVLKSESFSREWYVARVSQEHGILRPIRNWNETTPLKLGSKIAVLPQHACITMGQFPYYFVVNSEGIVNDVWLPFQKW
Nature of the assay: HPLC and LC-ESI-MS of urinary amino acid degradation by purified enzyme.

Assay [3] has as its target T1, serine racemase (mouse SR). Nature of the assay: LDH-coupled L-Ser dehydration assay, steady-state kinetics.
Assay [4] has as its target T3, asparaginase (AnsA; printed AsnA in the results, asparaginase 1) (Escherichia coli, UniProt P0A962).
T3 construct: N-terminal His-tagged protein
T3 sequence (P0A962 1-338): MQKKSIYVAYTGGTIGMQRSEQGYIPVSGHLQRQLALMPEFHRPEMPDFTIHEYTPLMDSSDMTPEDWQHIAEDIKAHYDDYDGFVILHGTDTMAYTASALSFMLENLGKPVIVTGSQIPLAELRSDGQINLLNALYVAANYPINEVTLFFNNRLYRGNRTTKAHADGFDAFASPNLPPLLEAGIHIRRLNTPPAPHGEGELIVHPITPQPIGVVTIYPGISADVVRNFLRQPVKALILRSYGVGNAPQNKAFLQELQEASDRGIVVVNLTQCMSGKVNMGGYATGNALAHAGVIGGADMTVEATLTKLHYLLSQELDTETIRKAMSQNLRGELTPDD
Nature of the assay: HPLC of urinary amino acids treated with purified enzyme.

The target of assay [5] is T4, asparagine synthase (AsnA) (Escherichia coli, UniProt P00963).
T4 construct: N-terminal His-tagged protein
T4 sequence (P00963 1-330): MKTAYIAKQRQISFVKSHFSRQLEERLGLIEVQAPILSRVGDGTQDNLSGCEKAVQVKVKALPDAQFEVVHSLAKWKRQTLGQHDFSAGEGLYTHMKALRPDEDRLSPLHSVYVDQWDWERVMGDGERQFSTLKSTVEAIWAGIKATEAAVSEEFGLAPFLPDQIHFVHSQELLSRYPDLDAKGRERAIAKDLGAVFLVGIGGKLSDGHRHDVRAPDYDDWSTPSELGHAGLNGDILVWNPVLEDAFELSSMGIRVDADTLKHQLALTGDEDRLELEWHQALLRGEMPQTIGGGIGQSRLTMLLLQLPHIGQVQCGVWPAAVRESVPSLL
Nature of the assay: preparative enzymatic amidation, HPLC.

Structures are written as SMILES.

Regarding `N[C@@H](C(=O)O)[C@H](O)C(=O)O` (racemic) [D-β-EHAsp], the “enzymatic resolution of racemic β-EHAsp by recombinant enzyme” value in assay [1] is on record as “could efficiently eliminate D-β-EHAsp from the racemic mixture”. Usually Ki stands for a measure of affinity in units of concentration, obtained from inhibition or displacement. Low values mean tighter binding, high ones weaker binding. For `NC(=O)[C@H](O)[C@H](N)C(=O)O` (stereo in doubt) [L-β-EHAsn, L-erythro-β-hydroxyasparagine], the “HPLC and LC-ESI-MS of urinary amino acid degradation by purified enzyme” value in assay [2] is listed as “the urinary Dsd1p substrate was identified as the (2S, 3S)-isomer of β-OH-Asn (L-β-EHAsn)”. For the same compound, the affinity in assay [3] corresponds to a Ki of 40 ± 6 µM. Besides, the “HPLC of urinary amino acids treated with purified enzyme” value in assay [4] is recorded as “Urinary β-OH-Asn could be converted into the corresponding isomer of β-hydroxy aspartate (β-OH-Asp) using the E. coli asparaginase”. Consider `N[C@H](C(=O)O)[C@@H](O)C(=O)O` [L-β-EHAsp], for which, in assay [5], the “preparative enzymatic amidation, HPLC” value is listed as “L-β-EHAsp was further converted to L-β-EHAsn by the action of E. coli AsnA”.
